Each structure is given as a SMILES string.

In experiment [1] the target is T1, rabbit E1 (Oryctolagus cuniculus, UniProt Q29504).
T1 construct: purchased Calbiochem 6620700
T1 sequence (Q29504 1-1058): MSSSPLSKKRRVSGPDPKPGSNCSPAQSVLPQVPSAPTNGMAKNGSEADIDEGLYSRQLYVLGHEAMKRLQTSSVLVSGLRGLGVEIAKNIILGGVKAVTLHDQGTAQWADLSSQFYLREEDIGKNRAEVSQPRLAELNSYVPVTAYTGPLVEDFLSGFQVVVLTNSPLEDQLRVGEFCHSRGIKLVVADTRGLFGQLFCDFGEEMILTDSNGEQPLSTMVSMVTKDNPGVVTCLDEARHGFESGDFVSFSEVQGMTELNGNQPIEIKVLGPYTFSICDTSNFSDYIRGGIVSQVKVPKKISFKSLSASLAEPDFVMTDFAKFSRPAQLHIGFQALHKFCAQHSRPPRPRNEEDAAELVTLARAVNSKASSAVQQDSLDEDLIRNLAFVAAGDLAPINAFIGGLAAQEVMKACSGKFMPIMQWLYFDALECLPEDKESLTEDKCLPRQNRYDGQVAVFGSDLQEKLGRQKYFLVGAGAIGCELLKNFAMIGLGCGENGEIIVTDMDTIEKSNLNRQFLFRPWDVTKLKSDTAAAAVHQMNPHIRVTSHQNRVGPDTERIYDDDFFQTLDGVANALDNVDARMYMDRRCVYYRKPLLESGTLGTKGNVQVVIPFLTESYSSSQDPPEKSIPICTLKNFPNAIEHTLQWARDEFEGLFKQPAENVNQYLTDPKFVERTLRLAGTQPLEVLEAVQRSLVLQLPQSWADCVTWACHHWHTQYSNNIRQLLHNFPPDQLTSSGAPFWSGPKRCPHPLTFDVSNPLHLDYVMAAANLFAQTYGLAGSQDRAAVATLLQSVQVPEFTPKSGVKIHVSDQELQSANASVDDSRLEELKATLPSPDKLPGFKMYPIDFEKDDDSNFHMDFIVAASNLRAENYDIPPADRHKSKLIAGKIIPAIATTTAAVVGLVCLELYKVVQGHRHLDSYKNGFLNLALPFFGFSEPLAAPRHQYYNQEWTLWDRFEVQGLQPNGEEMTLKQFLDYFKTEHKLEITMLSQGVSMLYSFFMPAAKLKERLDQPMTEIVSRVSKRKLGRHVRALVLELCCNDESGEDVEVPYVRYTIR
Nature of the experiment: E1 only assay (thiol-ester linkage of ubiquitin with E1). It counts as biochemical. The note with it: FIG. 2D. The method, then:
2 μl rabbit E1 +12 μl of 1× reaction buffer are mixed together with the test compound followed by addition of 1 μl of ^32P Ub is added for 10 minutes at room temperature followed by resolution by SDS-PAGE under non-reducing conditions to maintain thiol-ester linkages and exposure as above.

For experiment [2], the target named is T2, GST-UbcH5B (Homo sapiens, UniProt P62837).
T2 construct: made in house
Kind of experiment: E1+E2 assay with immobilized E2 (thiol-ester linkage with E2). It counts as biochemical. The note with it: FIG. 2E. The method, then: c. E1+E2 Assay with Immobilized E2
20 pmoles of bacterially-expressed GST-UbcH5B is bound to GS for 30 minutes at room temperature after washing in 50 mM Tris pH 7.5. Twenty (20) μl of 1× reaction buffer is added. After incubation with the test compound for 1 hour at 23° C. the beads were washed with 50 mM Tris pH 7.5. This was followed by addition of Rabbit E1/32P Ub cocktail (1 μl/1 μl) followed by incubation at 1 hour shaking at 23° C. This is followed by resolution by SDS-PAGE under non-reducing conditions and exposure as above.

Experiment [3] has as its system Normal human fibroblast MRC-5. Nature of the experiment: Cell based assay for accumulation of MDM2 and p53 (immunoblot). The note with it: MRC-5 cells, 50 μM, 8 hours. The method, then: Methods: Normal human fibroblast MRC-5 were chosen to determine whether the compounds from the high throughput screening can inhibit the E3 activity of Mdm2, i.e. stabilizing MDM2 and p53 in vivo. After being seeded in 12-well tissue culture cluster overnight, the cells were treated with 50 μM of the compounds for 8 hours. They were harvested with trypsin-EDTA, washed with PBS, and lysed with RIPA buffer. Following removal of insoluble pellet by centrifugation for 20 minutes at 10000 rpm, the lysate was separated on 4-20% gradient SDS-polyacrylamide gel and transferred onto nitrocellulose membrane. The membrane was then blotted with anti-p53 antibody (DO-1), anti-MDM2 antibodies (Ab-1 and Ab-2), anti-p27 (Santa Cruz), anti-Nedd4, and anti-p21Waf1 antibody. After extensive washing with PBS containing 0.5% Triton X-100, it was incubated with HRP-labeled donkey anti-mouse antibody and visualized using enhanced chemiluminescence.

T2 sequence (P62837 whole entry): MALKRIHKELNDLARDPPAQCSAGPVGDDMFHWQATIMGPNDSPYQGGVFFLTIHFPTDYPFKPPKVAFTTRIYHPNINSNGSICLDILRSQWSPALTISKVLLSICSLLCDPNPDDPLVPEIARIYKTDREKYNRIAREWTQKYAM

In the case of `O=c1nc2n(-c3cccc(Cl)c3)c3ccc([N+](=O)[O-])cc3cc-2c(=O)[nH]1` [Compound 98C07, 10-(-3-chloro-phenyl)-7-nitro-10H-pyrimido[4,5-b]quinoline-2,4-dione], the “inhibition of thiol-ester linkage of ubiquitin with E1” value in experiment [1] is given as “inhibits neither thiol-ester linkages of ubiquitin with E1 nor E2”. For the same molecule, in experiment [2], the “inhibition of thiol-ester linkage of ubiquitin with E2” value is on record as “inhibits neither thiol-ester linkages of ubiquitin with E1 nor E2”. Also, in experiment [3], the MDM2 level result is “specifically increase MDM2 and p53”; the p53 level result was “specifically increase MDM2 and p53”.

The values above are taken from patent publication US7498336B2, “Deazaflavin compounds and methods of use thereof” (The United States of America as represented by the …, priority 2003, dated 2009).
